ChEMBL document CHEMBL4680157, “Design, synthesis and biological evaluation of novel TRβ selective agonists sustained by ADME-toxicity analysis” (Eur J Med Chem, 2020)
Activity calls are given as the source filed them. The rule behind the calls is not given here.

Columns and labels:
[1] = Toxicity in F344 rat assessed as reduction in liver and body weight ratio at 50 to 100 ug per 100 g body weight, ig administered daily for 3 days; format: tissue-based; details: in vivo, po, 72 h, dose 50-100 µg, time 3 day
[2] = Toxicity in F344 rat assessed as effect on serum glucose level at 75 ug per 100 g body weight, ig administered daily for 3 days (reference value: 151 +/- 13.5 mg/dl); details: in vivo, po, 72 h, dose 75 µg, time 3 day
[3] = Toxicity in F344 rat assessed as effect on serum triglycerides level at 100 ug per 100 g body weight, ig administered daily for 3 days (reference value: 86.8 +/- 10.4 mg/dl); details: in vivo, po, 72 h, dose 100 µg, time 3 day
[4] = Toxicity in F344 rat assessed as effect on serum cholesterol level at 50 ug per 100 g body weight, ig administered daily for 3 days (reference value: 67.2 +/- 2.5 mg/dl); details: in vivo, po, 72 h, dose 50 µg, time 3 day
[5] = Toxicity in F344 rat assessed as effect on serum AST/GOT level at 50 ug per 100 g of body weight, ig administered daily for 3 days (reference value: 153 +/- 11 U/L); details: in vivo, po, 72 h, dose 50 µg, time 3 day
CYP1A2 = molecular target: T1, CYP1A2 (Homo sapiens, UniProt P05177); assay: Inhibition of CYP1A2 (unknown origin) at 10 uM relative to control; format: ADME
T1 sequence (P05177 whole entry): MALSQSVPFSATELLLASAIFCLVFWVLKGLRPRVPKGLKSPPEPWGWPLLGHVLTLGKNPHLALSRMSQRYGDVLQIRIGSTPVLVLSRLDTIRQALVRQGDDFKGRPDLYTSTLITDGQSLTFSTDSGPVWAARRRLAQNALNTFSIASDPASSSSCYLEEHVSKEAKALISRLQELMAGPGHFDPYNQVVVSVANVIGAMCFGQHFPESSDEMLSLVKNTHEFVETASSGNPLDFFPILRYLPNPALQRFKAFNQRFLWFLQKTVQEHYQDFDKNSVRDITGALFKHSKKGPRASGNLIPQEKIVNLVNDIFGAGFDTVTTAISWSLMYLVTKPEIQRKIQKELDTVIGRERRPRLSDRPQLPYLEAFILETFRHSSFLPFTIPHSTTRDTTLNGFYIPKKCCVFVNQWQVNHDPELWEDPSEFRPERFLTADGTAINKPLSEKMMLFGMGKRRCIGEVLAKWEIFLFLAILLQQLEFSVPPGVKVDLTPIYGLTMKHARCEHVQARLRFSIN

[6] = Toxicity in F344 rat assessed as effect on serum AST/GOT level at 75 ug per 100 g of body weight, ig administered daily for 3 days (reference value: 153 +/- 11 U/L); details: in vivo, po, 72 h, dose 75 µg, time 3 day
[7] = Toxicity in F344 rat assessed as effect on serum AST/GOT level at 100 ug per 100 g body weight, ig administered daily for 3 days (reference value: 153 +/- 11 U/L); details: in vivo, po, 72 h, dose 100 µg, time 3 day
[8] = Cytotoxicity against human U2OS cells assessed as cell growth inhibition at 10 uM after 24 hrs relative to control; format: cell-based
[9] = Toxicity in F344 rat assessed as effect on serum glucose level at 100 ug per 100 g body weight, ig administered daily for 3 days (reference value: 151 +/- 13.5 mg/dl); details: in vivo, po, 72 h, dose 100 µg, time 3 day
[10] = Toxicity in F344 rat assessed as effect on serum ALT/GPT level at 75 ug per 100 g body weight, ip administered daily for 3 days (reference value: 46 +/- 4 U/L); format: organism-based; details: in vivo, 72 h, dose 75 µg, time 3 day
[11] = Toxicity in F344 rat assessed as effect on serum ALT/GPT level at 75 ug per 100 g body weight, ig administered daily for 3 days (reference value: 46 +/- 4 U/L); details: in vivo, po, 72 h, dose 75 µg, time 3 day
[12] = Toxicity in F344 rat assessed as increase in heart weight at 50 to 100 ug per 100 g body weight, ig administered daily for 3 days; details: in vivo, po, 72 h, dose 50-100 µg, time 3 day
[13] = Toxicity in F344 rat assessed as increase in heart and body weight ratio at 50 to 100 ug per 100 g body weight, ig administered daily for 3 days; details: in vivo, po, 72 h, dose 50-100 µg, time 3 day
[14] = Toxicity in F344 rat assessed as effect on serum glucose level at 50 ug per 100 g body weight, ig administered daily for 3 days (reference value: 151 +/- 13.5 mg/dl); details: in vivo, po, 72 h, dose 50 µg, time 3 day
[15] = Toxicity in F344 rat assessed as effect on serum ALT/GPT level at 100 ug per 100 g body weight, ig administered daily for 3 days (reference value: 46 +/- 4 U/L); details: in vivo, po, 72 h, dose 100 µg, time 3 day
[16] = Toxicity in F344 rat assessed as effect on serum cholesterol level at 75 ug per 100 g body weight, ig administered daily for 3 days (reference value: 67.2 +/- 2.5 mg/dl); details: in vivo, po, 72 h, dose 75 µg, time 3 day
[17] = Toxicity in F344 rat assessed as effect on serum cholesterol level at 100 ug per 100 g body weight, ig administered daily for 3 days (reference value: 67.2 +/- 2.5 mg/dl); details: in vivo, po, 72 h, dose 100 µg, time 3 day
[18] = Cytotoxicity against human hTERT cells assessed as cell growth inhibition at 10 uM after 48 hrs relative to control; format: cell-based, hTERT-BJ
[19] = Toxicity in F344 rat assessed as effect on serum AST/GOT level at 75 ug per 100 g body weight, ip administered daily for 3 days (reference value: 153 +/- 11 U/L); format: organism-based; details: in vivo, 72 h, dose 75 µg, time 3 day
[20] = molecular target: T2, AMP-activated protein kinase, AMPK (Homo sapiens) (UniProt P54646+O43741+P54619+Q9UGJ0+Q9Y478+Q13131+Q9UGI9); assay: Activation of AMPK in human HepG2 cells assessed as ratio of phosphorylated ACC at 10 uM measured after 24 hrs by Western blot analysis; format: cell-based; details: filed as activator
[21] = Toxicity in F344 rat assessed as effect on serum triglycerides level at 75 ug per 100 g body weight, ig administered daily for 3 days (reference value: 86.8 +/- 10.4 mg/dl); details: in vivo, po, 72 h, dose 75 µg, time 3 day
HepG2 = assay: Induction of lipolysis in human HepG2 cells assessed as reduction in intracellular lipid accumulation at 1 to 10 uM incubated for 24 hrs by Oil Red O staining based spectrophotometric analysis; format: functional, cell-based; details: dose 1-10 µM
[22] = Toxicity in F344 rat assessed as effect on serum cholesterol level at 75 ug per 100 g body weight, ip administered daily for 3 days (reference value: 67.2 +/- 2.5 mg/dl); format: organism-based; details: in vivo, 72 h, dose 75 µg, time 3 day
[23] = molecular target: T2, AMP-activated protein kinase, AMPK (Homo sapiens); assay: Activation of AMPK in human HepG2 cells assessed as ratio of phosphorylated AMPK at 10 uM measured after 24 hrs by Western blot analysis; format: cell-based; details: filed as activator
[24] = Toxicity in F344 rat assessed as effect on serum bilirubin level at 50 ug per 100 g body weight, ig administered daily for 3 days (reference value: 1.4 +/- 0.2 mg/dl); details: in vivo, po, 72 h, dose 50 µg, time 3 day
[25] = Toxicity in F344 rat assessed as effect on serum bilirubin level at 75 ug per 100 g body weight, ip administered daily for 3 days (reference value: 1.4 +/- 0.2 mg/dl); format: organism-based; details: in vivo, 72 h, dose 75 µg, time 3 day

inhibition at 10 µM (CYP1A2) | SMILES | Activity [1] | Activity [2] | Activity [3] | Activity [4] | Activity [5] | Activity [6] | Activity [7] | inhibition at 24 h, 10 µM [8] | Activity [9] | Activity [10] | Activity [11] | Activity [12] | Activity [13] | Activity [14] | Activity [15] | Activity [16] | Activity [17] | inhibition at 48 h, 10 µM [18] | Activity [19] | further results
< 50% | CC(=O)Nc1ccc(Cc2c(C)cc(OCC(=O)O)cc2C)cc1C(C)C | Non-Toxic | 132 mg/dL | 62.8 mg/dL | 68 mg/dL | 141 U/L | 133 U/L | 108 U/L | < 50% | 164 mg/dL | 38 U/L | 46 U/L | Non-Toxic | Non-Toxic | 129 mg/dL | 37 U/L | 71.4 mg/dL | 67.6 mg/dL | < 50% | 134 U/L | Activity [20]: Active; Activity [21]: 67 mg/dL; Activity (HepG2): Active; Activity [22]: 71.4 mg/dL; Activity [23]: Active; Activity [24]: 1.1 mg/dL; Activity [25]: 1.5 mg/dL
< 50% | Cc1cc(OCC(=O)O)cc(C)c1Cc1ccc(O)cc1 |  |  |  |  |  |  |  | < 50% |  |  |  |  |  |  |  |  |  | < 50% |  | 
< 50% | Cc1cc(OCC(=O)O)cc(C)c1Cc1ccc(N)c(C(C)C)c1 | Non-Toxic | 153 mg/dL | 67.8 mg/dL | 69.5 mg/dL | 134 U/L | 119 U/L | 102 U/L | < 50% | 166 mg/dL | 36 U/L | 43 U/L | Non-Toxic | Non-Toxic | 136 mg/dL | 42 U/L | 68.6 mg/dL | 70.1 mg/dL | < 50% | 123 U/L | Activity [20]: Active; Activity [21]: 74 mg/dL; Activity (HepG2): Active; Activity [22]: 69.6 mg/dL; Activity [23]: Active; Activity [24]: 1.3 mg/dL; Activity [25]: 1.1 mg/dL
